Measurements from PubChem BioAssay (NCI).
Several values for one entry are separate records, joined by “and”; a condition that tells them apart may be missing. Equal entries are not always repeated.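 Cultured in 96-well plates, cells were exposed to test compound for 48 hours across five concentrations. Abbreviation: GI50, concentration required for 50% inhibition of growth. TGI denotes the concentration required for complete inhibition of growth.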

Columns and labels:
Experiment in all cases: NCI tumour cell line growth inhibition, 48 h
U251 CNS = test system: U251 CNS
786-0 renal = test system: 786-0 renal
SF-295 CNS = test system: SF-295 CNS
HCT-15 colon = test system: HCT-15 colon
OVCAR-8 ovarian = test system: OVCAR-8 ovarian
DU-145 prostate = test system: DU-145 prostate
COLO 205 colon = test system: COLO 205 colon
SK-MEL-5 melanoma = test system: SK-MEL-5 melanoma
UO-31 renal = test system: UO-31 renal

SMILES | GI50 (U251 CNS) | TGI (U251 CNS) | GI50 (786-0 renal) | TGI (786-0 renal) | GI50 (SF-295 CNS) | TGI (SF-295 CNS) | GI50 (HCT-15 colon) | TGI (HCT-15 colon) | GI50 (OVCAR-8 ovarian) | TGI (OVCAR-8 ovarian) | GI50 (DU-145 prostate) | TGI (DU-145 prostate) | GI50 (COLO 205 colon) | TGI (COLO 205 colon) | GI50 (SK-MEL-5 melanoma) | TGI (SK-MEL-5 melanoma) | GI50 (UO-31 renal) | TGI (UO-31 renal)
CCN1CCN(Cc2ccc(-c3cc4c(N[C@H](C)c5ccccc5)ncnc4[nH]3)cc2)CC1 | 1.84 µM and 2.85 µM | 5.06 µM and > 10 µM | 2.02 µM and 1.91 µM | 8.93 µM and 7.74 µM | 1.62 µM and 3.09 µM | 4.2 µM and > 10 µM | 2.56 µM and 2.39 µM | 17.9 µM and > 10 µM | 3.5 µM and 8.1 µM | 33 µM and > 10 µM | 1.78 µM and 2.38 µM | 19.9 µM and > 10 µM | 1.9 µM and 1.73 µM | 3.6 µM and 3.52 µM | 1.76 µM and 1.72 µM | 3.68 µM and 3.88 µM | 0.37 µM and 0.542 µM | 8.95 µM and > 10 µM
COc1cccc2c1C(=O)C=CC2=O |  | 13.9 µM |  | 23.9 µM |  | 29.2 µM |  | 24.2 µM |  | 9.97 µM |  | 33.5 µM |  | 20.5 µM |  | 30.3 µM |  | 28.9 µM
F | 2870 µM | > 6870 µM | 2550 µM | > 6870 µM | 2050 µM | 6380 µM | 3800 µM | > 6870 µM | 3250 µM | > 6870 µM | 2800 µM | > 6870 µM | 2830 µM | > 6870 µM | 1420 µM | 2700 µM | 1790 µM | 6220 µM
O=[N+]([O-])c1ccc(S(=O)(=O)Cc2ccccc2)c([N+](=O)[O-])c1 |  | 4.91 µM |  | 2.98 µM |  | 33.6 µM |  | 3.94 µM |  | 3.7 µM |  | 9.59 µM |  | 3.26 µM |  | 4.9 µM |  | 2.95 µM
O=C1C(Cl)=C(Nc2cccc(Cl)c2)C(=O)N1Cc1ccccc1 | 3.98 µM | 15.5 µM | 3.85 µM | 16.2 µM | 6.28 µM | 20.1 µM | 10.8 µM | 27.4 µM | 4.63 µM | 32 µM | 15.3 µM | 30.6 µM | 15.7 µM | > 100 µM | 6.83 µM | 20.3 µM | 6.94 µM | 25.8 µM
COc1cc(NS(C)(=O)=O)ccc1Nc1c2ccc([N+](=O)[O-])cc2nc2c(C)cccc12 | 0.214 µM | 11.2 µM | 0.362 µM | 6.04 µM | 0.171 µM | 11.1 µM | 1.38 µM | 4.32 µM | 1.08 µM | 14 µM | 0.133 µM | 10.7 µM | 2.05 µM | 13.5 µM | 0.194 µM | 1.81 µM | 1.22 µM | 11.4 µM
CC[C@]1(O)CC(OC2CC(N(C)C)C(O)C(C)O2)c2c(cc3c(c2O)C(=O)c2c(O)cccc2C3=O)[C@@H]1C(=O)OC (some centres not stated) |  | 5.57 µM |  | 5.58 µM |  | 3.31 µM |  | 2.75 µM |  | 5.11 µM |  | 12.9 µM |  | 3.79 µM |  | 0.941 µM |  | 0.635 µM
C[C@@H]1COCCN1c1cc(C2([S@](C)(=N)=O)CC2)nc(-c2ccnc3[nH]ccc23)n1 | 9.81 µM and 5.08 µM | > 100 µM | 1.39 µM and 2.03 µM | 16.1 µM and > 10 µM | 2.6 µM and 3.21 µM | 32.9 µM and > 10 µM | 4.34 µM and 4.51 µM | > 100 µM | 6.65 µM and > 10 µM | > 84.5 µM | 3.1 µM and 3.64 µM | > 100 µM | 6.18 µM and > 10 µM | 43.1 µM and > 10 µM | 3.6 µM and 3.87 µM | 15.7 µM and > 10 µM | 2.95 µM and 2.04 µM | 32.1 µM and > 10 µM
